Values after ≈ are worked out from the molar mass of the structure shown. Active and inactive are the calls of the source. The calls are words filed in the database; no cut-off is given here.
Columns and labels:
[1] = tested on: Mycobacterium tuberculosis; assay: Antimicrobial activity against Mycobacterium tuberculosis H37Rv ATCC 27294 assessed as minimum inhibitory concentration […] by micro plate Alamar blue assay; format: functional
[2] = Cytotoxicity against Mycobacterium bovis Bacillus Calmette-Guerin infected mouse J774 macrophage assessed as cell viability at 10 ug/mL after 48 hrs by MTT assay; format: cell-based; details: J774 macrophage cells infected with Mycobacterium bovis BCG, read-out: Activity
[3] = Cytotoxicity against mouse J774 macrophage assessed as cell viability at 10 ug/mL after 48 hrs by MTT assay; format: cell-based; details: J774 macrophage cells, read-out: Activity
[4] = Cytotoxicity against Mycobacterium bovis Bacillus Calmette-Guerin infected mouse J774 macrophage assessed as cell viability at 1 ug/mL after 48 hrs by MTT assay; format: cell-based; details: J774 macrophage cells infected with Mycobacterium bovis BCG, read-out: Activity
[5] = Cytotoxicity against mouse J774 macrophage assessed as cell viability at 1 ug/mL after 48 hrs by MTT assay; format: cell-based; details: J774 macrophage cells, read-out: Activity
[6] = Cytotoxicity against mouse J774 macrophage assessed as cell viability at 100 ug/mL after 48 hrs by MTT assay; format: cell-based; details: J774 macrophage cells, read-out: Activity
[7] = Cytotoxicity against Mycobacterium bovis Bacillus Calmette-Guerin infected mouse J774 macrophage assessed as cell viability at 100 ug/mL after 48 hrs by MTT assay; format: cell-based; details: J774 macrophage cells infected with Mycobacterium bovis BCG, read-out: Activity

SMILES | MIC [1] | viability at 48 h, 10 ug/mL [2] | viability at 48 h, 10 ug/mL [3] | viability at 48 h, 1 ug/mL [4] | viability at 48 h, 1 ug/mL [5] | viability at 48 h, 100 ug/mL [6] | viability at 48 h, 100 ug/mL [7]
NCCCCCCCCCCCCN | 2.5 µg/mL (≈ 12.5 µM) | 49% | 100% | 56% | 100% | 100% | 38%
NCCCN | inactive | 94% | 100% | 100% | 100% | 100% | 89%
NCCCCCCCN | inactive | 78% | 100% | 79% | 100% | 100% | 70%
NCCN [ETHYLENEDIAMINE] | inactive | 23% | 100% | 35% | 100% | 100% | 29%
NCCCCCCCCCN | 3.12 µg/mL (≈ 19.7 µM) | 100% | 100% | 100% | 100% | 100% | 71%
NCCCCCCCCCCN | 3.12 µg/mL (≈ 18.1 µM) | 34% | 100% | 56% | 100% | 94% | 42%
NCCCCCCCCN [DIAMINOOCTANE] | inactive | 64% | 100% | 68% | 100% | 95% | 64%
NCCCCCCN | inactive | 92% | 100% | 98% | 100% | 100% | 76%
NCCCCN [PUTRESCINE] | inactive | 90% | 100% | 100% | 100% | 100% | 82%
NCCCCCN | inactive | 100% | 100% | 100% | 100% | 100% | 98%
NCCCCCCCCCCCN | 3.12 µg/mL (≈ 16.7 µM) | 53% | 100% | 58% | 100% | 100% | 40%
CC[C@@H](CO)NCCN[C@@H](CC)CO [ETHAMBUTOL] |  | 88% | 93% | 92% | 100% | 82% | 85%
